Laboratory results reported in patent US20260219274A1, “POLYOL SWEETNERS AND CARDIOVASCULAR AND THROMBOTIC EVENT RISK” (THE CLEVELAND CLINIC FOUNDATION, priority 2023, published 2026).

Key:
[1] = system: human platelet-rich plasma; test: Aggregometry in platelet-rich plasma; assay type: cell-based; details: PRP incubated with the polyol versus vehicle, submaximal agonist
Procedure: Aggregometry in platelet rich plasma (PRP) was performed as previously described^40 and outlined in supplemental methods.
Platelet rich plasma (PRP) was isolated as previously described.^5 Whole blood was drawn from healthy donors and anticoagulated with sodium citrate (0.109 M). PRP was prepared by centrifuging at 100×g for 10 min at 22° C. Platelet poor plasma (PPP) was obtained by additional centrifugation of the remaining blood samples at 11,000×g for 2 min. Next, platelets were counted with a hemocytometer and the platelet concentration adjusted to 2×10^8/mL using PPP. PRPs were then pre-incubated with xylitol (Catalogue #X3375-5G, Sigma, St. Louis, MO, USA) at indicated concentrations or vehicle (saline) for 30 min at 22° C. After exposure to xylitol or vehicle, PRPs were maintained in suspension with constant stirring (600 rpm) at 37° C. Subsequently, platelet aggregation was induced by adding the agonists ADP (up to 5 μM, Catalogue #384, Chronolog, Havertown, PA, US) or TRAP6 (TFLLR-NH2, up to 10 μM, Catalogue #464, Tocris, Bristol, UK). For all platelet aggregometry experiments, blood was always processed within approx. 30 minutes of collection, and isolated platelets were used within 120 minutes of isolation. When used, pairs of vehicle vs. xylitol incubated PRP were always incubated and analyzed together (beginning, middle, end of platelet prep use) and after 120 minutes post isolation, PRPs were not used anymore.
Platelet rich plasma (PRP) and platelet poor plasma (PPP) was prepared as previously described with sodium citrate (0.109 M) as anticoagulant^51. Platelets were counted and concentrations adjusted to 2×10^8/mL with PPP. PRPs were pre-incubated with erythritol (Catalogue #E7500, Sigma, St. Louis, MO, USA), glucose (Catalogue #G7021, Sigma, St. Louis, MO, USA) or 1,5-AHG (Catalogue #29874, Cayman Chemical, Ann Arbor, Michigan, USA) (at indicated concentrations) or vehicle (saline) for 30 min at 22° C. After pre-incubation PRPs were maintained in suspension with constant stirring (600 rpm) at 37° C. and platelet aggregation was initiated using ADP (up to 5 μM, Catalogue #384, Chronolog, Havertown, PA, US) or TRAP6 (TFLLR-NH2, up to […], Catalogue #464, Tocris, Bristol, UK).

[2] = system: stable subjects undergoing elective diagnostic cardiac evaluations (Discovery Cohort); details: in vivo
Text: Our first study employed a Discovery Cohort, where we used untargeted metabolomics (semi-quantitative analyses) to analyze plasma samples from 1,157 stable subjects to identify circulating analytes whose levels were associated with future development of adverse cardiovascular events over an ensuing 3 year period. The Discovery Cohort included sequential stable patients (ages 18 years or above) undergoing elective diagnostic coronary angiography for risk evaluation at a quaternary referral center between 2001 and 2007 (GeneBank at the Cleveland Clinic; clinicaltrials.gov identifier: NCT00590200) with clinical and longitudinal outcomes.
In both, the Discovery and Validation Cohorts, Major Adverse Cardiovascular Events (MACE) were defined as death, nonfatal myocardial infarction, or nonfatal cerebrovascular accident (stroke) during follow-up. Adjudicated long term survival data were collected through medical records review and Social Security Death Index query. Cardiovascular disease (CVD) was indicated as presence of peripheral artery disease or coronary artery disease, indicated as any clinical history of myocardial infarction, coronary revascularization (including percutaneous coronary intervention, coronary artery bypass surgery), or angiographic evidence of significant stenosis (≥50%) in 1 or more major coronary arteries. Estimated glomerular filtration rate (eGFR) in both cohorts was calculated based on the recent Chronic Kidney Disease Epidemiology Collaboration 2021 CKD-EPI Creatinine equation.^37 Platelet-related hematology analyses were performed with an Advia 120 hematology analyzer (Siemens, New York, NY).^38 Use of anti-platelet agents (=1556) was defined as either aspirin or a P2Y12 agent or both. All observational studies in this example are reported in compliance with the STrengthening the Reporting of Observational studies in Epidemiology (STROBE)-Statement.^39 Information on gender of study participants of the Discovery and Validation Cohorts is reported in Table 1-3.
For untargeted mass spectrometry analyses, subject plasma samples were derivatized and run on GC-MS analyses as previously described.^19 Raw data files were processed using the metabolomics BinBase database.^45
Continuous variables are summarized as median (interquartile range [IQR]), and categorical variables are presented as %. Difference between groups (e.g. tertiles or quartiles) were examined using Kruskal Wallis test for continuous variables and chisq (χ^2) test for categorical variables. Kaplan-Meier analysis with Cox proportional-hazards regression was used for time-to-event analysis to determine hazard ratios (HR) and 95% confidence intervals (CI) for incident MACE. Adjustments included traditional cardiovascular risk factors (age, sex, diabetes mellitus, systolic blood pressure, low-density lipoprotein cholesterol levels, high-density lipoprotein cholesterol levels, triglyceride levels, smoking status) and high-sensitivity C-reactive protein (hsCRP). We confirmed that the proportionality hazards assumptions were met using the Schoenfeld residuals against the transformed time. Mann-Whitney U-test or Wilcoxon matched-pairs signed rank test were applied to continuous variables to examine differences between 2 groups. Kruskal-Wallis test with Dunn's post hoc test was used for pairwise multiple comparisons of ranked data. Two-way ANOVA with Šidák's multiple comparison post hoc test was used for multiple-group comparisons of aggregometry responses using different concentrations of agonists. For analysis of collagen-dependent platelet adhesion in whole blood, a two-way repeated measures ANOVA with Sidák's multiple comparison post hoc test was used. All reported measurements represent distinct samples. Data analyses were performed with R software (version 4.0.2) and GraphPad Prism software (version 9.1.2). A two-sided P<0.05 was considered statistically significant. […]

[3] = system: platelets of healthy volunteers; test: Erythritol or glucose ingestion: platelet aggregation and granule release; assay type: in vivo, human
Procedure: (§1) This single center trial was approved by the Cleveland Clinic Institutional Review Board (clinicaltrials.gov identifier NCT04731363). Following subject consent (nonsmokers without CVD, hypertension, or diabetes), blood was drawn after overnight fast and 30 min following consumption of water containing 30 g of […] glucose (n=10, 30.1±11 years of age, 40% male), or erythritol (n=10, 30.5±8 years of age, 50% male), a quantity commonly found in erythritol-sweetened foods and the daily intake of some subjects based on 2013-2014 National Health and Nutrition Examination Survey (NHANES) data and FDA filings.(4,5).
(§2) Following erythritol consumption, postprandial circulating erythritol levels (assessed using stable-isotope-dilution liquid-chromatography tandem mass spectrometry (LC/MS/MS)3) were >1000-fold increased compared to baseline levels (median[inter quartile range], 6480[5930-7300]μM versus 3.75[3.35-3.87]μM, P<0.0001). In contrast, circulating erythritol levels remained similar before versus after glucose consumption (3.0[2.6-4.0]μM versus 2.9[2.7-3.8]μM, P=0.87; glucose levels before versus after 86.5(81.8-93.0) versus 127.0(122.3-132.3), P=0.002). […] In contrast, glucose consumption had no effect on platelet aggregation.

clinical = details: both, human, in vivo
Procedure: as §1, §2

OC[C@H]1OC[C@H](O)[C@@H](O)[C@@H]1O [1,5-AHG, 1,5-anhydroglucitol, reference compound]
stimulus-dependent platelet aggregation response to ADP and TRAP6 [1]: no effect | association with cardiovascular event risks / MACE [2]: negatively associated

O=C[C@H](O)[C@@H](O)[C@H](O)[C@H](O)CO [glucose, reference compound]
platelet aggregation responses to ADP and TRAP6 after ingestion ([3]; 30 min after 30 g vs baseline): no effect | stimulus-dependent release of alpha granule marker CXCL4 ([3]; TRAP6 (7.5 μM), ADP (2.0 μM), after ingestion): no differences | stimulus-dependent release of dense granule marker serotonin ([3]; TRAP6 and ADP, after ingestion): no differences | glucose levels (clinical): 86.5(81.8-93.0) | glucose levels (clinical; 30 min): 127.0(122.3-132.3) | stimulus-dependent platelet aggregation response to ADP and TRAP6 [1]: no effect
